Source: US9295754B2, “Noggin inhibitory compositions for ossification and methods related thereto” (Emory University, priority 2011, dated 2016)
Positions count from the first letter of the chain named.

Experiments:
endogenous Noggin = molecular target: T1, endogenous Noggin (Mus musculus, UniProt P97466); test: BMP-induced ALP activity in C2C12 cells without exogenously added Noggin; type: cell-based; details: absence of exogenously added Noggin, FIG. 8
T1 construct: in the absence of exogenously added Noggin in C2C12 cells; endogenous in cells; host or cells: mouse C2C12 cells (ATCC)
T1 sequence (P97466 28-232): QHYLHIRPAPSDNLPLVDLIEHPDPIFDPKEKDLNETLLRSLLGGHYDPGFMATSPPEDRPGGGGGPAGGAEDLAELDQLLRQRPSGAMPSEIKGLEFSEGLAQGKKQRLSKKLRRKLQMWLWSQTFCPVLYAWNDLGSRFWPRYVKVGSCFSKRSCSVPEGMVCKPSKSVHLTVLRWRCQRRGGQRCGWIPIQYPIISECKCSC
Protocol: Mouse C2C12 cells and Dulbecco's modified Eagle's medium (DMEM) were purchased from ATCC (Manassas, Va.). The non-heat inactivated fetal bovine serum (FBS) was purchased from HyClone Laboratories, Inc. (Logan, Utah). The C2C12 cells at passages 4 to 7 were subcultured in T-75 cm2 flasks in DMEM supplemented with 10% FBS at 37° C. in 5% CO2 with humidification. When the flasks reached 80% confluence, the cells were trypsinized and seeded in triplicate at 200,000 cells/well in a 6-well plate for quantitative real-time RT-PCR and alkaline phosphatase (ALP) assays or at 50,000 cells/well in a 12-well plate for the dual-luciferase reporter assay.
The C2C12 cells were plated at 200,000 cells/well in 6-well plates and grown overnight in DMEM containing 10% FBS. On day 2, the culture medium was replaced with DMEM containing 2% FBS and the cells were treated with 100 ng/ml of BMP-2, +/−various concentrations of the Noggin-interacting compound, and +/−100 ng/ml of Noggin for 72 hours. […] The ALP activity was measured in triplicate using an ALP assay kit (Sigma-Aldrich, St. Louis, Mo.) in microtiter plates. The protein amount was determined with Bio-Rad protein assay reagent (Bio-Rad, Hercules, Calif.) using bovine serum albumin (BSA) as a standard. […]

Noggin = molecular target: T2, Noggin (Homo sapiens, UniProt Q13253); test: in vitro cell-based screening assays (luciferase reporter and ALP assays in C2C12 cells); details: BMP-2 +/- Noggin, FIG. 2-5
T2 construct: host or cells: added to mouse C2C12 cells
T2 sequence (Q13253 28-232): T1 sequence (P97466 28-232) with P67A
Protocol: The known crystals structures of complexes of BMP-2/BMPR-IA, BMP7/Noggin and BMP-2/BMPR-IA/ActR-II and BMPR-II monomer structures were analyzed. Using these structures ternary complexes of BMP-2/BMPR-IA/BMPR-II and BMP-2/Noggin (from BMP7/Noggin) were modeled. Solvent accessibility of complexes and the monomers were computed to identify exact binding regions and the individual residues involved in binding. The entire 430 Å^2 surface area of Noggin that binds to BMP-2 and thus block binding of BMP to BMPR-IA and BMPR-II binding regions were analyzed. Complementary regions in BMP were also evaluated in extensive virtual screenings using LUDI docking procedures using CAP commercially available molecular databases.
Mouse C2C12 cells and Dulbecco's modified Eagle's medium (DMEM) were purchased from ATCC (Manassas, Va.). […] When the flasks reached 80% confluence, the cells were trypsinized and seeded in triplicate at 200,000 cells/well in a 6-well plate for quantitative real-time RT-PCR and alkaline phosphatase (ALP) assays or at 50,000 cells/well in a 12-well plate for the dual-luciferase reporter assay.
The C2C12 cells were plated at 200,000 cells/well in 6-well plates and grown overnight in DMEM containing 10% FBS. […] The ALP activity was measured in triplicate using an ALP assay kit (Sigma-Aldrich, St. Louis, Mo.) in microtiter plates. […]

[1] = test system: fetal rat calvarial osteoblast primary cell cultures; test: BMP-induced bone nodules in fetal rat calvarial osteoblast primary cell cultures; type: cell-based; details: FIG. 6
bone growth = test: Collagen disc implantation with Noggin-blockers and BMP-2 in rat ectopic model; type: in vivo, Harlan athymic rats; details: for Average / Results: 100ul, collagen carrier, chest implant, 4 weeks
Source text: Harlan athymic rats about 5-6 weeks of age were chest implanted with a collegan disc and doses of N50 in combination with BMP-2. After 4 weeks the rats were sacrificed and evaluated for bone growth.

Row | SMILES | function of endogenous Noggin / BMP-induced ALP activity (endogenous Noggin) | Noggin blocking (Noggin) | BMP-induced bone nodules [1] | Average (bone growth; N50 4 mM + BMP-2 1.5 ug) | Results (bone growth; N50 4 mM + BMP-2 1.5 ug) | Average (bone growth; N50 4 mM + BMP-2 5 ug) | Results (bone growth; N50 4 mM + BMP-2 5 ug) | Average (bone growth; N50 8 mM + BMP-2 1.5 ug) | Results (bone growth; N50 8 mM + BMP-2 1.5 ug) | Average (bone growth; N50 8 mM + BMP-2 5 ug) | Results (bone growth; N50 8 mM + BMP-2 5 ug) | Average (bone growth; N50 12 mM + BMP-2 1.5 ug) | Results (bone growth; N50 12 mM + BMP-2 1.5 ug) | Average (bone growth; N50 12 mM + BMP-2 5 ug) | Results (bone growth; N50 12 mM + BMP-2 5 ug) | bone growth (bone growth; N50 in combination with BMP-2, after 4 weeks, certain doses)
1 | Cc1ccc(C(C#N)=Cc2cccc([N+](=O)[O-])c2)cc1 [N50-083, 3-(3-nitrophenyl)-2-(p-tolyl)acrylonitrile] | blocks function of endogenous Noggin by potentiating BMP-induced ALP activity | – | – | – | – | – | – | – | – | – | – | – | – | – | – | –
2 | N#CC(=Cc1cccc(Cl)c1)c1ccccn1 (racemic) [N50, 3-(3-chlorophenyl)-2-(pyridin-2-yl)acrylonitrile] | – | confirmed Noggin blockers | potentiation of BMP-induced bone nodules | 3 | Bone made (4 of 4) | 4.25 | Bone made (4 of 4) | 1.75 | Bone made (2 of 4) | 3.25 | Bone made (3 of 4) | 3.5 | Bone made (4 of 4) | 4.75 | Bone made (4 of 4) | Certain doses showed improvement
3 | Cc1cc(C)nc(NC(=O)c2sc3ccccc3c2Cl)c1 [N2, 3-chloro-N-(4,6-dimethylpyridin-2-yl)benzo[b]thiophene-2-carboxamide] | – | confirmed Noggin blockers | – | – | – | – | – | – | – | – | – | – | – | – | – | –
